{
  "source": "patent EP0769956B1",
  "about": "“USE OF A GnRH ANTAGONIST FOR THE PREPARATION OF A MEDICAMENT FOR THE TREATMENT OF GONADAL-STEROID CONDITIONS” (THE MEDICAL COLLEGE OF HAMPTON ROADS, priority 1994, dated 2000)",
  "key": {"[1]": {"test_system": "estrogen-induced endometrial proliferation", "assay": "Progesterone challenge test (withdrawal bleeding versus amenorrhea, spotting)", "assay_type": "in vivo, cynomolgus monkeys", "procedure": "(§1) Eleven adult female cynomolgus monkeys having regular and presumably ovulatory menstrual cycles were entered into the study. Body weights were determined monthly. Menstrual bleeding and spotting were recorded daily by visual inspection of external genitalia and insertion of vaginal swabs using a saline moistened cotton-tipped applicator, respectively. Blood samples were collected from femoral vessels and the serum stored for subsequent RIA of estradiol and progesterone. Coefficients of variation for these assays were: 7.4 and 11.1; and 7.0 and 10.9%, respectively, for within and between assays. The GnRH antagonist (GnRHant) used was Nal-Glu: [Ac-D2NAL, 4ClDPhe^2, D3Pal^3, Arg^5, DGlu^6(AA), DAla^10]-GnRH.\n(§2) After a 60 day wash-out interval, the Part II experimental design had two objectives: 1) attempt to titer the GnRHant dose to individual monkeys so that residual ovarian estrogen secretion was often within the target range (estradiol at 35 to 45 pg/ml) in as many of the blood samples as possible; and 2) perform periodic progesterone challenge tests wherein withdrawal bleeding indicates significant estrogen-induced endometrial proliferation (i.e. excessive estrogenic influence) versus amenorrhea (the absence of progesterone withdrawal bleeding) as an indicator that the GnRHant dose and, in turn, the tonic ovarian estrogen production was indicative of a controlled estrogenic milieu.\n(§3) The design was progressive in that all eleven monkeys initially received Nal-Glu GnRHant at 0.05 mg/kg starting on day 2 of the menstrual cycle and continuing daily until results of the progesterone challenge test and estradiol levels in circulation indicated the need to raise the dose. Concurrently, a pair of progesterone-loaded silastic implants were inserted sc during GnRHant treatment from day 20 and 30, and then removed. If withdrawal menses occurred during the next week, the individual Nal-Glu dose was raised to 0.1 mg/kg daily. On GnRHant treatment day 50, the 10 day progesterone challenge test was repeated for all monkeys. Those primates who were amenorrheic remained on this dose of Nal-Glu; any \"bleeders\" were to be shifted to a higher dose of GnRHant at 0.2 mg/kg daily through treatment day 90, with the final progesterone challenge test given to all monkeys on days 80 to 90. Again, amenorrhea or withdrawal menses was recorded.\nFor definition, withdrawal bleeding was scored when blood was on the external genitalia for two or more consecutive days within the week following progesterone withdrawal. Spotting was scored when blood was evident only by coloration of the cotton swab upon insertion into the vagina."}, "[2]": {"test_system": "ovarian estrogen secretion", "assay": "Part I dose-finding study: RIA of serum estradiol during 14 days of daily im treatment", "assay_type": "in vivo, cynomolgus monkeys", "conditions": "0.1 mg/kg im daily; some individual primates, predominately", "procedure": "as §1\nIn Part I of the study, the object was to perform a brief dose-finding study that indicated residual serum estradiol levels in intact primates previously illustrating regular menstrual cycles. Specifically sought was an approximation of the minimal daily im dose of Nal-Glu sufficient to suppress circulating estradiol levels into the target range: less than 45 pg/ml but more than 35 pg/ml. Beginning on day 2 of the menstrual cycle, Nal-Glu GnRHant, suspended in sesame oil, was administered between 9 and 10 am in doses of 0.1 (n = 5) and 0.3 mg/kg (n = 6) for 14 days. Femoral blood was obtained daily under ketamine anesthesia. […]"}, "[3]": {"test_system": "ovarian estrogen secretion", "assay": "Part II individualized dose titering: RIA of serum estradiol every 10 days", "assay_type": "in vivo, cynomolgus monkeys", "procedure": "as §1, §2, §3\nFemoral blood samples were collected every 10 days through the study for RIA of estradiol and progesterone."}, "in vivo": {"assay": "in vivo", "design": "species or system cynomolgus monkeys", "conditions": "cynomolgus monkey, sc", "procedure": "Eleven adult female cynomolgus monkeys having regular and presumably ovulatory menstrual cycles were entered into the study. Body weights were determined monthly. Menstrual bleeding and spotting were recorded daily by visual inspection of external genitalia and insertion of vaginal swabs using a saline moistened cotton-tipped applicator, respectively. Blood samples were collected from femoral vessels and the serum stored for subsequent RIA of estradiol and progesterone. Coefficients of variation for these assays were: 7.4 and 11.1; and 7.0 and 10.9%, respectively, for within and between assays. The GnRH antagonist ([…]) used was Nal-Glu: [[…]. The design was progressive in that all eleven monkeys initially received […] at 0.05 mg/kg starting on day 2 of the menstrual cycle and continuing daily until results of the progesterone challenge test and estradiol levels in circulation indicated the need to raise the dose. Concurrently, a pair of progesterone-loaded silastic implants were inserted sc during […] treatment from day 20 and 30, and then removed. If withdrawal menses occurred during the next week, the individual Nal-Glu dose was raised to 0.1 mg/kg daily. On […] treatment day 50, the 10 day progesterone challenge test was repeated for all monkeys. […] Again, amenorrhea or withdrawal menses was recorded. […]"}, "pituitary-ovarian axis": {"test_system": "pituitary-ovarian axis", "conditions": "sufficient single dose; monkeys; cited from earlier work"}},
  "note": "Several values for one entry are separate records, joined by “and”; a condition that tells them apart may be missing. Identical values can stand only once.",
  "data": [
    {"compound": "[Ac-D2NAL, 4ClDPhe^2, D3Pal^3, Arg^5, DGlu^6(AA), DAla^10]-GnRH [Nal-Glu]", "values": [
      {"measurement": "monkeys achieving withdrawal amenorrhea", "setting": "[1]; second progesterone challenge test, only the monkeys raised to 0.1 mg/kg im daily", "result": "8 of 9"},
      {"measurement": "Incidence of Spotting", "setting": "[1]; week of progesterone withdrawal days 31-37", "result": 13, "unit": "days"},
      {"measurement": "Amenorrhea Achieved", "setting": "[1]; week of progesterone withdrawal days 31-37, first challenge, all eleven monkeys on 0.05 mg/kg im daily", "result": "two and 2/11"},
      {"measurement": "Incidence of Spotting", "setting": "[1]; week of progesterone withdrawal days 61-67", "result": 12, "unit": "days"},
      {"measurement": "Amenorrhea Achieved", "setting": "[1]; week of progesterone withdrawal days 61-67, second challenge, 0.05 or 0.1 mg/kg im daily", "result": "10/11"},
      {"measurement": "Incidence of Spotting", "setting": "[1]; week of progesterone withdrawal days 91-97", "result": 0, "unit": "days"},
      {"measurement": "Amenorrhea Achieved", "setting": "[1]; week of progesterone withdrawal days 91-97, third challenge, 0.05, 0.1 or 0.2 mg/kg im daily", "result": "eleven and 11/11"},
      {"measurement": "serum estradiols", "setting": "[2]", "result": "< 25", "unit": "pg/mL"},
      {"measurement": "mean serum estradiol levels", "setting": "[3]; 0.05 mg/kg im daily, the two primates with withdrawal amenorrhea, target zone 35 to 45 pg/ml", "result": "in or near the target zone"},
      {"measurement": "estradiol suppression", "setting": "[3]; 0.2 mg/kg im daily, the lone resistant monkey", "result": "under 20 pg/ml"},
      {"measurement": "mean circulating estradiol levels", "setting": "[3]; at third progesterone challenge test, all females except the one given 0.2 mg/kg im daily, target zone 35 to 45 pg/ml", "result": "in or near the target zone"},
      {"measurement": "mean serum estradiol concentrations", "setting": "[3]; dose raised to 0.1 mg/kg im daily from day 31, 8 monkeys", "result": "approximately 40 pg/ml"}
    ]},
    {"compound": "CC(=O)[C@H]1CC[C@H]2[C@@H]3CCC4=CC(=O)CC[C@]4(C)[C@H]3CC[C@]12C", "note": "[progesterone]", "values": [
      {"measurement": "concentration at 240 h", "setting": "in vivo", "result": "6.4 ± 0.6", "unit": "ng/mL"}
    ]},
    {"compound": "D-Ac-D-2-Nal^1-DpClPhe^2-D-3-Pal^3-Ser^4-NiLys^5-D-NicLys^6-Leu^7-ILys^8-Pro^9-D-Ala^10 [antide]", "values": [
      {"measurement": "effect on the pituitary-ovarian axis", "setting": "pituitary-ovarian axis", "result": "immediate and sustained inhibition of the pituitary-ovarian axis"}
    ]}
  ]
}
